Measurements from patent publication US20250197377A1, “NOVEL PHARMACEUTICAL SALTS AND POLYMORPHIC FORMS OF AN ERBB AND BTK INHIBITOR” (DIZAL (JIANGSU) PHARMACEUTICAL CO., LTD., priority 2021, published 2025).
≈ marks a conversion by molar mass, not a printed value. Where “and” joins values, the source holds several entries; their conditions need not be identical. Equal values may be shown once. Read-outs that look alike come from different tables or passages of the source.

Key:
NCI-H1975 = assay: In vitro cell based assay, anti-proliferation GI50, NCI-H1975; conditions: Homo sapiens, NCI-H1975, EGFR L858R/T790M
EGFR 19Del = molecular target: T1, EGFR 19Del (Homo sapiens, UniProt P00533, DEL746-750); assay: In vitro cell based assay, PD IC50, PC-9
T1 construct: Form A and B in vitro cell based assay; endogenous in cells; host or cells: PC-9

A431 = assay: In vitro cell based assay, anti-proliferation GI50, A431; conditions: Homo sapiens, A-431, EGFR Wildtype
[1] = Form A and Form B inter-conversion study (competitive slurry, XRPD); assay type: physicochemical
Protocol: Competitive slurry experiments were conducted to evaluate the relative stability of Form A and Form B. Inter-conversion study was performed at room temperature and 50° C. using single and binary solvents listed in the Table 1 below. About 80 mg (100 mg for 50° C.) of Form A and Form B (1:1, w/w) was weighed into sample vials (8 mL) and then 3 mL (2 mL for 50° C.) of solvents were added to each vial. The obtained suspensions were kept stirring for 7 days at room temperature and 50° C., then filtered at specified time. The wet and dried solids were analyzed by XRPD (dried in vacuum oven at 45° C.).
Form B was dominant in tested solvent systems with water activity below 0.15 at room temperature (24˜27° C.). […] Pure Form A and Form B were stable during drying process (50° C., vacuum) for at least 2 days.

3T3_YVMA = assay: In vitro cell based assay, anti-proliferation GI50, 3T3_YVMA; conditions: HER2 A775_G776insYVMA
Ba/F3_NPH = assay: In vitro cell based assay, anti-proliferation GI50, Ba/F3_NPH; conditions: EGFR H773_V774insNPH
[2] = Solubility in bio-relevant media; assay type: physicochemical
PC-9 = assay: In vitro cell based assay, anti-proliferation GI50, PC-9; conditions: Homo sapiens, PC-9, EGFR 19Del
[3] = PK study of Form A and Form B in Rat; assay type: in vivo; conditions: rat, in vivo; for AUC(0-t): read-out: Mean AUC0~48; for half-life: read-out: Mean t1/2 (converted); for Tmax: read-out: Median Tmax
EGFR L858R/T790M = molecular target: T2, EGFR L858R/T790M (Homo sapiens, UniProt P00533, L858R/T790M); assay: In vitro cell based assay, PD IC50, NCI-H1975
T2 construct: Form A and B in vitro cell based assay; endogenous in cells; host or cells: NCI-H1975

[4] = PK study of Form A and Form B in Dog; assay type: in vivo; conditions: 10 mg/kg
EGFR H773_V774insNPH = molecular target: T3, EGFR H773_V774insNPH (Homo sapiens, UniProt P00533, INS773NPH); assay: In vitro cell based assay, PD IC50, Ba/F3_NPH
T3 construct: expressed in transfected cells; host or cells: Ba/F3 (Ba/F3_NPH)

[5] = Solubility in organic solvents and water; assay type: physicochemical; conditions: r.t.
HER2 A775_G776insYVMA = molecular target: T4, HER2 A775_G776insYVMA (Homo sapiens, UniProt P04626, INS775YVMA); assay: In vitro cell based assay, PD IC50, 3T3_YVMA
T4 construct: expressed in transfected cells; host or cells: 3T3 (3T3_YVMA)

[6] = Dynamic moisture sorption analysis (DVS); assay type: physicochemical
Protocol: DVS was determined using DVS Advantage-1 or Intrinsic (SMS, UK). The sample was tested at a targeted RH of 10 to 90% full cycle in step mode. The analysis was performed in 10% RH increments. Equilibrium:60 min RH (%) measurement points: First cycle: 0, 10, 20, 30, 40, 50, 60, 70, 80, 90. Second cycle: 90, 80, 70, 60, 50, 40, 30, 20, 10, 0.

EGFR Wildtype = molecular target: T5, EGFR Wildtype (Homo sapiens, UniProt P00533); assay: In vitro cell based assay, PD IC50, A431
T5 construct: Form A and B in vitro cell based assay; endogenous in cells; host or cells: A431

[7] = Water activity study of Form A and Form B (slurry, XRPD); assay type: physicochemical; conditions: 24~27° C. (before dry)
Protocol: To study the effects of water on the stability of Form A and Form B, slurry experiments in the systems with different water activity were carried out. Form A or Form B was suspended separately in different water activity systems (Table 4). […] Residual solids were filtered and then dried in the vacuum oven at 45° C. for 8-24 hours. Dry solids were characterized by XRPD.

T2 sequence (P00533 25-1210 T790M/L858R): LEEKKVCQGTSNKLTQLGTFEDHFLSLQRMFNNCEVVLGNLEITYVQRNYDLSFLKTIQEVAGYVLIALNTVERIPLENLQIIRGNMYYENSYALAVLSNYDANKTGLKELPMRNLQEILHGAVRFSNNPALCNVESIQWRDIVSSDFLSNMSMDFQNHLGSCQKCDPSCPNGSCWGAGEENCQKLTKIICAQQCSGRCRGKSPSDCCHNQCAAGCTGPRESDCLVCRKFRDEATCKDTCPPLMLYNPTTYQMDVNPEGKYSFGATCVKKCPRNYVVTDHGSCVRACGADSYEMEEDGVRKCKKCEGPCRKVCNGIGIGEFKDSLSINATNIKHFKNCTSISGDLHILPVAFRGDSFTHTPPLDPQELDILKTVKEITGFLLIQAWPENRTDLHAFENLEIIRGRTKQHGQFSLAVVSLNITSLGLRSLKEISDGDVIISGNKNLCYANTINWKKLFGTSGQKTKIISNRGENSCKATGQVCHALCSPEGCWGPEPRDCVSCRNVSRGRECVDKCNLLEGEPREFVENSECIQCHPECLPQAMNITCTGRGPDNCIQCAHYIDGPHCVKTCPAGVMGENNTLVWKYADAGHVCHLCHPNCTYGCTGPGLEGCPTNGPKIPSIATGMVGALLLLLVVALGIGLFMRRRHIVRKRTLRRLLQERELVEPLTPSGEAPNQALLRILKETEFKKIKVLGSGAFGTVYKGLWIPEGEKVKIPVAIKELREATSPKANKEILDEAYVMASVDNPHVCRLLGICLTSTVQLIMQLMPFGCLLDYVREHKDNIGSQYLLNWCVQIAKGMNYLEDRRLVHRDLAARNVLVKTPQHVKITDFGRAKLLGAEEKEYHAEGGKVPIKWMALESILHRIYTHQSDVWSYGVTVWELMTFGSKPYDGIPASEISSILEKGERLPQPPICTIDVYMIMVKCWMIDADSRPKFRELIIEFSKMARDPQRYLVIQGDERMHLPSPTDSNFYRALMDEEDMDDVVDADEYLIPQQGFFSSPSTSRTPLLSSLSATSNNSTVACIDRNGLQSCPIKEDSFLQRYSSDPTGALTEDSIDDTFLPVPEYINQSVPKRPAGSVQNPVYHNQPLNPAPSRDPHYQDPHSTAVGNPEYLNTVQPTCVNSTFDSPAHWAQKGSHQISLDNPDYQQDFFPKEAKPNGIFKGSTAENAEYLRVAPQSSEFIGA
T4 sequence (P04626 with tags, fused parts or gaps INS775YVMA): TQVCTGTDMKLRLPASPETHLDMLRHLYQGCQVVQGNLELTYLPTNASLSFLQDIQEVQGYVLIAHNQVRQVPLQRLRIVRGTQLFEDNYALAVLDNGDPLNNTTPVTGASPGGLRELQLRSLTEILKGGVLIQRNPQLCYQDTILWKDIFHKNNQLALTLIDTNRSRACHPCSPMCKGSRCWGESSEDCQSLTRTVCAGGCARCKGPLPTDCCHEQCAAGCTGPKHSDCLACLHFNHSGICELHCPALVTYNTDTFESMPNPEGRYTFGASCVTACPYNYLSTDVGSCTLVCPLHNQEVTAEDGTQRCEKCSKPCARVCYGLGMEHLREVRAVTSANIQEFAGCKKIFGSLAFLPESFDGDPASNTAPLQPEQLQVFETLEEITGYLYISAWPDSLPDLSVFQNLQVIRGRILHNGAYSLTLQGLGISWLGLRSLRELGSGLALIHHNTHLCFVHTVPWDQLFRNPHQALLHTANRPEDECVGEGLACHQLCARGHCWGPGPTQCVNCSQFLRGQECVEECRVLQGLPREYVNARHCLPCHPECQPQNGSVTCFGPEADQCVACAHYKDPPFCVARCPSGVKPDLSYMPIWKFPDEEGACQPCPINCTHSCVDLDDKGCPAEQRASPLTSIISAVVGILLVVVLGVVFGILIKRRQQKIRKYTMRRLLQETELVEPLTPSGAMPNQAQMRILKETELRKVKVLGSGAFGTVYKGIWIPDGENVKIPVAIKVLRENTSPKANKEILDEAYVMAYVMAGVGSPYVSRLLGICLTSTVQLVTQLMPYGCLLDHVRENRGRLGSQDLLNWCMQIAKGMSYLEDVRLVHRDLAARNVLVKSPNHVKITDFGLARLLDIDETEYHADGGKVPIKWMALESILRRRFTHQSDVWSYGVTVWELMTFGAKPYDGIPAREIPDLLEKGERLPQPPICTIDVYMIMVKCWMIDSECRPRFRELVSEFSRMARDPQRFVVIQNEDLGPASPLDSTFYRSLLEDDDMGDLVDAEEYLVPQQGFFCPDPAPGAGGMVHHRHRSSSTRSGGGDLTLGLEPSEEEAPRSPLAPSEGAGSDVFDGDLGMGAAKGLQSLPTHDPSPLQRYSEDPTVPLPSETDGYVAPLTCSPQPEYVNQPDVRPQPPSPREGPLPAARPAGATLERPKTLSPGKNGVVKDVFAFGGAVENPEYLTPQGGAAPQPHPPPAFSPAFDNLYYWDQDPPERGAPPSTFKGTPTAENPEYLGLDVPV
T5 sequence (P00533 25-1210): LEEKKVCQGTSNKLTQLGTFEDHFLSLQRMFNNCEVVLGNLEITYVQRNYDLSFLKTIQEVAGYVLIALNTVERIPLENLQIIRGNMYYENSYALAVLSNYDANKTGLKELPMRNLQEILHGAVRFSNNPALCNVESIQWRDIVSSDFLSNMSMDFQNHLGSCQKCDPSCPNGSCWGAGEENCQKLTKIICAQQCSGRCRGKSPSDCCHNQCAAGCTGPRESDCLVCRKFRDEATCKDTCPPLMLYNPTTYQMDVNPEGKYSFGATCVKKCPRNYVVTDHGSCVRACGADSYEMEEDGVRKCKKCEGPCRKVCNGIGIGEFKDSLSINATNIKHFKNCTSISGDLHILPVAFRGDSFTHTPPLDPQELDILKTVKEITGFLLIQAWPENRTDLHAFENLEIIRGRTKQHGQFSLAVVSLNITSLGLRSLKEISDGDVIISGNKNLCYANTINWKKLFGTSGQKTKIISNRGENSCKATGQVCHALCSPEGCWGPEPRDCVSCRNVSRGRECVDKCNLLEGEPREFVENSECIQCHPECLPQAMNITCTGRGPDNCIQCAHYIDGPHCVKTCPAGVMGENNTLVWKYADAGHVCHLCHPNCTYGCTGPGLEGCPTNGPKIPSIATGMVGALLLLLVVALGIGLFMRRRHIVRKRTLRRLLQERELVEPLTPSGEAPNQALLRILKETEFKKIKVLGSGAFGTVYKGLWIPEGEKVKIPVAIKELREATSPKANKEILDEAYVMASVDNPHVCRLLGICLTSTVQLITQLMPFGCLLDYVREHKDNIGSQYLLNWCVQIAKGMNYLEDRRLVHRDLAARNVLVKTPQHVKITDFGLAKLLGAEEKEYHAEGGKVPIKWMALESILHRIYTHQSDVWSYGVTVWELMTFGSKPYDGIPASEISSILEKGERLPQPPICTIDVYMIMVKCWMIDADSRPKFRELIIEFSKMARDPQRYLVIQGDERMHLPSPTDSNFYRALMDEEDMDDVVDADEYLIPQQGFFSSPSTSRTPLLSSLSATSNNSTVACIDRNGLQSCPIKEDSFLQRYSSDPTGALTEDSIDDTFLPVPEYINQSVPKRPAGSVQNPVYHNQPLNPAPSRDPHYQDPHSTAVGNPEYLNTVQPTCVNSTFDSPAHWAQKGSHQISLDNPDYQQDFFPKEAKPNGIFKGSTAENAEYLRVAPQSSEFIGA
T1 sequence (P00533 with tags, fused parts or gaps DEL746-750): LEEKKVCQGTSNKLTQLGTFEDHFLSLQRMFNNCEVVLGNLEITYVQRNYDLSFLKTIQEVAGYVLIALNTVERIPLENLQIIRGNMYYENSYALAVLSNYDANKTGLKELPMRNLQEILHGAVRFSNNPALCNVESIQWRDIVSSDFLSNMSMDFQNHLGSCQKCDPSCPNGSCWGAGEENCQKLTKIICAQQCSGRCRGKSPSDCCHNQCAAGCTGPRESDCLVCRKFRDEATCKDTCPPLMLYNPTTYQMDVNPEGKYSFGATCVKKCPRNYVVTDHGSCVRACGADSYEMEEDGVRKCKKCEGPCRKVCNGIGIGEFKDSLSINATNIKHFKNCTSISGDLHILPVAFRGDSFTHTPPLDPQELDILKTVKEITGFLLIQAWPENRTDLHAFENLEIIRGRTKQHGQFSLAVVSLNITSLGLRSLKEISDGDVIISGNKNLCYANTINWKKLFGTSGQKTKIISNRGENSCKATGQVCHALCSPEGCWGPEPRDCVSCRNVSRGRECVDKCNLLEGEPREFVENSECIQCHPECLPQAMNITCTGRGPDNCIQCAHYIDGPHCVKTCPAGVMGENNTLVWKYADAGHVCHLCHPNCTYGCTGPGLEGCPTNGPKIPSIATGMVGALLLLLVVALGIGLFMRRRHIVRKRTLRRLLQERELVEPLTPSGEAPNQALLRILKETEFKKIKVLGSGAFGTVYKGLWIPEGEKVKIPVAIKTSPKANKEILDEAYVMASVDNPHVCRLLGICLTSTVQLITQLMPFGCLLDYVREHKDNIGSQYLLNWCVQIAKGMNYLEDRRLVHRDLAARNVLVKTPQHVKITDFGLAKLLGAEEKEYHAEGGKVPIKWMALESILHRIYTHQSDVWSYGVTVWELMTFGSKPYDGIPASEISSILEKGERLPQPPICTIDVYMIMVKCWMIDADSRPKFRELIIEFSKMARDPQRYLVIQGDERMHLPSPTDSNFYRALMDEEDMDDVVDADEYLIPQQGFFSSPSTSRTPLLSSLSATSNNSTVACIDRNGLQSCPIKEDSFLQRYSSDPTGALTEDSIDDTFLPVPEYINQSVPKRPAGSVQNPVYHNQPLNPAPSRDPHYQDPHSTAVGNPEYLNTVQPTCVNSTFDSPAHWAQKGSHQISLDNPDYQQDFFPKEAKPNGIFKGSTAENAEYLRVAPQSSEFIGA

C=CC(=O)Nc1cc(Nc2nccc(Nc3cc(Cl)c(F)cc3C(C)(C)O)n2)c(OC)cc1N1CC[C@@H](N(C)C)C1 [Form A, (R)-N-(5-((4-((5-chloro-4-fluoro-2-(2-hydroxypropan-2-yl)phenyl)amino)pyrimidin-2-yl)amino)-2-(3-(dimethylamino)pyrrolidin-1-yl)-4-methoxyphenyl)acrylamide]
GI50 (NCI-H1975): 2.22 nM | IC50 (EGFR 19Del): 2.13 nM | GI50 (A431): 42.2 nM | Stability of pure form during drying process ([1]; 50° C., vacuum, at least 2 days): stable | Form change during the drying process ([1]; mixture of Form A and Form B): converted into Form B | GI50 (3T3_YVMA): 44.3 nM | GI50 (Ba/F3_NPH): 58.2 nM | Solubility ([2]; FaSSIF, 0.5 h): 170 µg/mL (≈ 0.291 mM) | Solubility ([2]; FaSSIF, 2 h): 190 µg/mL (≈ 0.325 mM) | Solubility ([2]; FaSSIF, 24 h): 260 µg/mL (≈ 0.445 mM) | Solubility ([2]; FeSSIF, 0.5 h): 4600 µg/mL (≈ 7.88 mM) | Solubility ([2]; FeSSIF, 2 h): 6880 µg/mL (≈ 11.8 mM) | Solubility ([2]; FeSSIF, 24 h): 11640 µg/mL (≈ 19.9 mM) | Solubility ([2]; SGF, 0.5 h): 23120 µg/mL (≈ 39.6 mM) | Solubility ([2]; SGF, 2 h): 24350 µg/mL (≈ 41.7 mM) | Solubility ([2]; SGF, 24 h): 24410 µg/mL (≈ 41.8 mM) | Solubility ([2]; SIF, 0.5 h): 29 µg/mL (≈ 0.0496 mM) | Solubility ([2]; SIF, 2 h): 40 µg/mL (≈ 0.0685 mM) | Solubility ([2]; SIF, 24 h): 40 µg/mL (≈ 0.0685 mM) | GI50 (PC-9): 4.76 nM | Cmax ([3]; 25 mg/kg): 199 ng/mL | AUC(0-t) ([3]; 25 mg/kg): 2130 ng·h/mL | half-life ([3]; 25 mg/kg): 4.4 h | Tmax ([3]; 25 mg/kg): 4 h | Cmax ([3]; 75 mg/kg): 506 ng/mL | AUC(0-t) ([3]; 75 mg/kg): 6870 ng·h/mL | half-life ([3]; 75 mg/kg): 6 h | Tmax ([3]; 75 mg/kg): 4 h | IC50 (EGFR L858R/T790M): 2.1 nM | AUC0-24 h ([4]; Female (individual animals)): 2.30 hr*μM/(mg/kg) and 1.80 hr*μM/(mg/kg) | AUC0-24 h ([4]; Male (individual animals)): 3.47 hr*μM/(mg/kg) and 5.47 hr*μM/(mg/kg) | IC50 (EGFR H773_V774insNPH): 32.4 nM | Solubility ([5]; Acetonitrile): S < 2.14 mg/ml | Solubility ([5]; EtOH, organic solvent or mixture, EtOH, read-out: Solubility): 13400 to 17800 µg/mL (≈ 22.9 to 30.5 mM) | Solubility ([5]; Ethyl acetate): S < 2.16 mg/ml | Solubility ([5]; MTBE, organic solvent or mixture, MTBE, read-out: Solubility): < 1820 µg/mL | Solubility ([5]; MeOH, organic solvent or mixture, MeOH, read-out: Solubility): 24800 to 49500 µg/mL (≈ 42.4 to 84.7 mM) | Solubility ([5]; THF, organic solvent or mixture, THF, read-out: Solubility): 17200 to 25800 µg/mL (≈ 29.4 to 44.1 mM) | Solubility ([5]; acetone, organic solvent or mixture, Acetone, read-out: Solubility): 5120 to 5690 µg/mL (≈ 8.77 to 9.74 mM) | Solubility ([5]; isopropanol, organic solvent or mixture, Isopropanol, read-out: Solubility): 4450 to 4940 µg/mL (≈ 7.62 to 8.46 mM) | Solubility ([5]; water, read-out: Solubility): < 2040 µg/mL | IC50 (HER2 A775_G776insYVMA): 3.84 nM | DVS (ΔW %, 80% RH) [6]: 0.63% | IC50 (EGFR Wildtype): 43.1 nM | XRPD results of slurry in different water activity solvent ([7]; 0% water/acetone, water activity 0, 1 d): Form A | XRPD results of slurry in different water activity solvent ([7]; 0% water/acetone, water activity 0, 3 d): Form A | XRPD results of slurry in different water activity solvent ([7]; 0% water/acetone, water activity 0, 7 d): Form A + B | XRPD results of slurry in different water activity solvent ([7]; 3% water/acetone, water activity 0.312, 3 d): Form A | XRPD results of slurry in different water activity solvent ([7]; 3% water/acetone, water activity 0.312, 7 d): Form A + B | XRPD results of slurry in different water activity solvent ([7]; 30% water/acetone, water activity 0.747, 1 d): Form A | XRPD results of slurry in different water activity solvent ([7]; 30% water/acetone, water activity 0.747, 3 d): Form A | XRPD results of slurry in different water activity solvent ([7]; 30% water/acetone, water activity 0.747, 7 d): Form A + B | XRPD results of slurry in different water activity solvent ([7]; water, 7 d): Form A
